Assay results taken from patent US9499534B2, “Thiazole-substituted aminopyrimidines as spleen tyrosine kinase inhibitors” (priority 2013, dated 2016).

Experiments:
[1] = target: recombinant human GST-SYK (Homo sapiens (Human), UniProt P43405); test: Homogeneous Time-Resolved Fluorescence (HTRF) Assay for the Recombinant Human Syk Enzyme; format: biochemical; details: GST-SYK 5 pM, ATP 25 μM, biotinylated substrate peptide 250 nM, HTRF signal
Protocol: Homogeneous Time-Resolved Fluorescence (HTRF) Assay for the Recombinant Human Syk Enzyme
A recombinant GST-hSYK fusion protein was used to measure potency of compounds to inhibit human Syk activity. The recombinant human GST-SYK (Carna Biosciences #08-176) (5 pM final concentration) was incubated with various concentrations of the inhibitor diluted in DMSO (0.1% final concentration) for 10 minutes at room temperature in 15 mM Tris-HCl (pH 7.5), 0.01% tween 20, 2 mM DTT in 384 well plate format. To initiate the reaction the biotinylated substrate peptide (250 nM final concentration) that contains the phosphorylation site for Syk was added with magnesium (5 mM final concentration) and ATP (25 μM final concentration). Final volume of the reaction was 10 μL. Phosphorylation of the peptide was allowed to proceed for 45′ at room temperature. To quench the reaction and detect the phosphorylated product, 2 nM of a Europium-anti-phosphotyrosine antibody (Perkin Elmer #AD0161) and 70 nM SA-APC (Perkin-Elmer #CR130-100) were added together in 15 mM Tris pH 7.5, 40 mM EDTA, 0.01% tween 20. Final volume of the quenching solution was 10 μL.
The resulting HTRF signal was measured after 30 minutes on an EnVision (Perkin-Elmer) reader using a time-resolved fluorescence protocol. Table A below lists activities as IC50 values (nM) for representative compounds of the invention.

PGD2 = details: dosed intranasally, phase I/II study, allergic rhinitis; cited from earlier work
[2] = phase II clinical trial for allergic rhinitis; cited from earlier work

| SMILES | IC50 [1] | clinical safety (PGD2) | decrease in PGD2 (PGD2) | efficacy versus placebo [2] |
| --- | --- | --- | --- | --- |
| N#Cc1cc(Nc2nccc(C(F)(F)F)n2)cc(-c2cnc(C3(O)CCC(C(=O)O)CC3)s2)c1 (stereo not drawn) [Example 1.7, cis 4-[5-(3-cyano-5-{[4-(trifluoromethyl)pyrimidin-2-yl]amino}phenyl)-1,3-thiazol-2-yl]-4-hydroxycyclohexanecarboxylic acid] | 8.48 nM |  |  |  |
| Oc1cccc(Nc2ncc(F)c(Nc3cccc(O)c3)n2)c1 [Example R112] |  | safe across a range of indicators | statistically significant decrease | lack of efficacy versus placebo |
